The source of these data is patent US20230022724A1, “NOVEL IMIDAZOPYRAZINE DERIVATIVES” (Hoffmann-La Roche Inc., priority 2018, published 2023).

Molecules are shown by their SMILES. Structures can show the parent of a compound that is named as a salt.

One assay has as its system Acinetobacter baumannii ATCC17978. The assay is described as follows: Antimicrobial susceptibility testing: 90% growth inhibitory concentration (IC90) determination. In kind it is cell-based. As to conditions: 90% growth inhibitory concentration, Acinetobacter baumannii ATCC17978, Iso-Sensitest broth, OD 600 nm over 16 h; read-out: ATCC17978 IC90. The procedure:
The in vitro antimicrobial activity of the compounds was determined according to the following procedure:
The assay used a 10-points Iso-Sensitest broth medium to measure quantitatively the in vitro activity of the compounds against Acinetobacter baumannii ATCC17978 and Acinetobacter baumannii ATCC17961.
Stock compounds in DMSO were serially twofold diluted (e.g. range from 50 to 0.097 μM final concentration) in 384 wells microtiter plates and inoculated with 49 μl the bacterial suspension in Iso-Sensitest medium to have a final cell concentration of ˜5×10^(5) CFU/ml in a final volume/well of 50 ul/well. Microtiter plates were incubated at 35±2° C.
Bacterial cell growth was determined with the measurement of optical density at λ=600 nm each 20 minutes over a time course of 16 h. Growth inhibition was calculated during the logarithmic growth of the bacterial cells with determination of the concentration inhibiting 50% (IC50) and 90% (IC90) of the growth.
Table 1 provides the 90% growth inhibitory concentrations (IC90) in micromoles per liter of the compounds of present invention obtained against the strain Acinetobacter baumannii ATCC17978 and Acinetobacter baumannii ATCC17961.
Turning to `COc1ccc(-c2cnc3c(Nc4ccc(C(=O)N5CCN(CCN(C)C)CC5)c(Cl)c4)nccn23)cc1F` [Example 3, (2-Chloro-4-((3-(3-fluoro-4-methoxyphenyl)imidazo[1,2-a]pyrazin-8-yl)amino)phenyl)(4-(2-(dimethylamino)ethyl)piperazin-1-yl)methanone], the concentration for an effect of 90% (IC90) was found to be 120 nM.

The same assay, now with this note: Acinetobacter baumannii, ATCC17978, 16 h, 90% growth inhibitory concentration, Acinetobacter baumannii ATCC17978, Iso-Sensitest broth, OD 600 nm over 16 h; read-out: ATCC17978 IC90.
`N#CCOc1ccc(-c2cnc3c(Nc4ccc(C(=O)N5CCN(CCN6CC(C(N)=O)C6)CC5)c(Cl)c4)nccn23)c(F)c1F` [Example 94, 1-[2-[4-[2-chloro-4-[[3-[4-(cyanomethoxy)-2,3-difluorophenyl]imidazo[1,2-a]pyrazin-8-yl]amino]benzoyl]piperazin-1-yl]ethyl]azetidine-3-carboxamide;2,2,2-trifluoroacetic acid]: the IC90 is 54 nM.
With `COc1ccc(-c2cnc3c(Nc4ccc(C(=O)N5CCC(C(=O)N[C@@H]6CCNC6)CC5)c(Cl)c4)nccn23)c(F)c1F` [Example 39, (R)-1-(2-chloro-4-((3-(2,3-difluoro-4-methoxyphe-nyl)imida-zo[1,2-a]pyrazin-8-yl)amino)benzoyl)-N-(pyrrolidin-3-yl)piperidine-4-carboxamide hydrochloride], the IC90 worked out at 200 nM.
`N#CCOc1ccc(-c2cnc3c(Nc4ccc(C(=O)N5CCC(n6cnnc6)CC5)c(Cl)c4)nccn23)c(F)c1F` [Example 24, 2-[4-[8-[3-chloro-4-[4-(1,2,4-triazol-4-yl)piperidine-1-carbonyl]anilino]imidazo[1,2-a]pyrazin-3-yl]-2,3-difluoro-phenoxy]acetonitrile]: the IC90 stood at 150 nM.
In the case of `N#CCOc1ccc(-c2cnc3c(Nc4ccc(C(=O)N5CCN(CCN6CC(c7nnn[nH]7)C6)CC5)c(Cl)c4)nccn23)c(F)c1F` [Example 105, 2-(4-(8-((4-(4-(2-(3-(2H-tetrazol-5-yl)azetidin-1-yl)ethyl)piperazine-1-carbonyl)-3-chlorophenyl)amino)imidazo [1,2-a]pyrazin-3-yl)-2,3-difluorophenoxy)acetonitrile trifluoroacetate], the IC90 turned out to be 360 nM.
With `COc1ccc(-c2cnc3c(Nc4ccc(C(=O)N5CCN(CCN6CCC6)CC5)c(Cl)c4)nccn23)cc1F` [Example 57, [4-[2-(azetidin-1-yl)ethyl]piperazin-1-yl]-[2-chloro-4-[[3-(3-fluoro-4-methoxyphenyl)imidazo[1,2-a]pyrazin-8-yl]amino]phenyl]methanone], the IC90 came out at 330 nM.
Regarding `N#CCOc1ccc(-c2cnc3c(Nc4ccc(C(=O)N5CCC(CN)CC5)c(Cl)c4)nccn23)c(F)c1F` [Example 12, 2-(4-(8-((4-(4-(aminomethyl)piperidine-1-carbonyl)-3-chlorophenyl)amino)imidazo[1,2-a]pyrazin-3-yl)-2,3-difluorophenoxy)acetonitrile], the IC90 worked out at 49 nM.
With `COc1ccc(-c2cnc3c(Nc4ccc(C(=O)N5CCC(CN)CC5)c(Br)c4)nccn23)cc1F` [Example 80, [4-(aminomethyl)piperidin-1-yl]-[2-bromo-4-[[3-(3-fluoro-4-methoxyphenyl)imidazo[1,2-a]pyrazin-8-yl]amino]phenyl]methanone], the IC90 is 87 nM.
The same measure, in the same setting: next, `CNCCN1CCN(C(=O)c2ccc(Nc3nccn4c(-c5ccc(OCC#N)c(F)c5F)cnc34)cc2Cl)CC1` [Example 91, 2-[4-[8-[3-chloro-4-[4-[2-(methylamino)ethyl]piperazine-1-carbonyl]anilino]imidazo[1,2-a]pyrazin-3-yl]-2,3-difluorophenoxy]acetonitrile; 2,2,2-trifluoroacetic acid]: 49 nM.
Regarding `N#CCOc1ccc(-c2cnc3c(Nc4ccc(C(=O)N5CCC(C(=O)N6CCNCC6CO)CC5)c(Cl)c4)nccn23)c(Cl)c1F` (centres unmarked) [Example 31, 2-[3-chloro-4-[8-[3-chloro-4-[4-[2-(hydroxymethyl)piperazine-1-carbonyl]piperidine-1-carbonyl]anilino]imidazo[1,2-a]pyrazin-3-yl]-2-fluoro-phenoxy]acetonitrile trifluoroacetate], the IC90 came to 320 nM.
Consider `COc1ccc(-c2cnc3c(Nc4ccc(C(=O)N5CCN(Cc6cnc[nH]6)CC5)c(Cl)c4)nccn23)cc1F` [Example 72, [2-chloro-4-[[3-(3-fluoro-4-methoxyphenyl)imidazo[1,2-a]pyrazin-8-yl]amino]phenyl]-[4-(1H-imidazol-5-ylmethyl)piperazin-1-yl]methanone], for which the IC90 was 510 nM.
Regarding `N#CCOc1cc(Cl)c(-c2cnc3c(Nc4ccc(C(=O)N5CCC(C(=O)N6CCNC(CO)C6)CC5)c(Cl)c4)nccn23)cc1F` (centres unmarked) [Example 15, 2-[5-chloro-4-[8-[3-chloro-4-[4-[3-(hydroxymethyl)piperazine-1-carbonyl]piperidine-1-carbonyl]anilino]imidazo[1,2-a]pyrazin-3-yl]-2-fluoro-phenoxy]acetonitrile; 2,2,2-trifluoroacetic], the IC90 worked out at 110 nM.
Regarding `COc1ccc(-c2cnc3c(Nc4ccc(C(=O)N5CCN(C)CC5)cc4)nccn23)cc1` [Example 64, [4-[[3-(4-methoxyphenyl)imidazo[1,2-a]pyrazin-8-yl]amino]phenyl]-(4-methylpiperazin-1-yl)methanone], the IC90 was 1400 nM.
`NCC1CCN(C(=O)c2ccc(Nc3nccn4c(-c5ccc(OC(F)F)cc5)cnc34)cc2I)CC1` [Example 51, [4-(aminomethyl)piperidin-1-yl]-[4-[[3-[4-(difluoromethoxy)phenyl]imidazo[1,2-a]pyrazin-8-yl]amino]-2-iodophenyl]methanone; hydrochloride]: the IC90 was 230 nM.
Consider `NCC1CCN(C(=O)c2ccc(Nc3nccn4c(-c5ccc(OCC#CCO)c(F)c5)cnc34)cc2Cl)CC1` [Example 76, [4-(aminomethyl)piperidin-1-yl]-[2-chloro-4-[[3-[3-fluoro-4-(4-hydroxybut-2-ynoxy)phenyl]imidazo[1,2-a]pyrazin-8-yl]amino]phenyl]methanone], for which the IC90 was 240 nM.

The same assay, now with this note: Acinetobacter baumannii, ATCC17978, 16 h, read-out: ATCC17978 IC90.
On to `N#CCOc1ccc(-c2cnc3c(Nc4ccc(C(=O)N5CCC(C(=O)N6CCN[C@H](C(=O)O)C6)CC5)c(Cl)c4)nccn23)c(F)c1F` [Example 45, (2S)-4-[1-[2-chloro-4-[[3-[4-(cyanomethoxy)-2,3-difluoro-phenyl]imidazo[1,2-a]pyrazin-8-yl]amino]benzoyl]piperidine-4-carbonyl]piperazine-2-carboxylic Acid; Formic Acid], for which the IC90 came out at 880 nM.
For `CS(=O)(=O)C1CN(CCN2CCN(C(=O)c3ccc(Nc4nccn5c(-c6ccc(OCC#N)c(F)c6F)cnc45)cc3Cl)CC2)C1` [Example 98, 2-[4-[8-[3-chloro-4-[4-[2-(3-methylsulfonylazetidin-1-yl)ethyl]piperazine-1-carbonyl]anilino]imidazo[1,2-a]pyrazin-3-yl]-2,3-difluorophenoxy]acetonitrile; 2,2,2-trifluoroacetic acid], the IC90 came out at 140 nM.
On to `CN(C)CC1CCN(C(=O)c2ccc(Nc3nccn4c(-c5ccc(OCC#N)c(F)c5Cl)cnc34)cc2Cl)CC1` [Example 6, 2-[3-chloro-4-[8-[3-chloro-4-[4-[(dimethylamino)methyl]piperidine-1-carbonyl]anilino]imidazo[1,2-a]pyrazin-3-yl]-2-fluoro-phenoxy]acetonitrile; formic acid], for which the IC90 was 110 nM.
For the compound `N#CCOc1ccc(-c2cnc3c(Nc4ccc(C(=O)N5CCC(C(=O)N6CCN[C@H](CO)C6)CC5)c(Cl)c4)nccn23)c(Cl)c1F` [Example 88, 2-[3-chloro-4-[8-[3-chloro-4-[4-[(3S)-3-(hydroxymethyl)piperazine-1-carbonyl]piperidine-1-carbonyl]anilino]imidazo[1,2-a]pyrazin-3-yl]-2-fluorophenoxy]acetonitrile; formic acid], the IC90 was 90 nM.
For `COc1ccc(-c2cnc3c(Nc4ccc(C(=O)N5CCN(C(=O)C(O)CN)CC5)c(Cl)c4)nccn23)cc1F` (centres unmarked) [Example 56, 3-amino-1-[4-[2-chloro-4-[[3-(3-fluoro-4-methoxyphenyl)imidazo[1,2-a]pyrazin-8-yl]amino]benzoyl]piperazin-1-yl]-2-hydroxypropan-1-one; hydrochloride], the IC90 stood at 240 nM.
On to `CC(C#N)Oc1ccc(-c2cnc3c(Nc4ccc(C(=O)N5CCN(CCCN(C)C)CC5)c(Cl)c4)nccn23)c(F)c1F` (centres unmarked) [Example 42, 2-[4-[8-[3-chloro-4-[4-[3-(dimethylamino)pro-pyl]piperazine-1-carbonyl]anilino]imi-dazo[1,2-a]pyrazin-3-yl]-2,3-difluoro-phenoxy]propanenitrile], for which the IC90 is 200 nM.
Consider `CN(C)CC(=O)N1CCN(C(=O)c2ccc(Nc3nccn4c(-c5ccc(OCC#N)c(F)c5F)cnc34)cc2Cl)CC1` [Example 14, 2-[4-[8-[3-chloro-4-[4-[2-(dimethylamino)acetyl]piperazine-1-carbonyl]anilino]imidazo[1,2-a]pyrazin-3-yl]-2,3-difluoro-phenoxy]acetonitrile; 2,2,2-trifluoroacetic acid], for which the IC90 was 28 nM.
For the compound `COc1ccc(-c2cnc3c(Nc4ccc(C(=O)N5CCN(C6CNC6)CC5)c(Cl)c4)nccn23)cc1F` [Example 73, [4-(azetidin-3-yl)piperazin-1-yl]-[2-chloro-4-[[3-(3-fluoro-4-methoxyphenyl)imidazo[1,2-a]pyrazin-8-yl]amino]phenyl]methanone; hydrochloride], the IC90 was found to be 530 nM.
